In ChEMBL document CHEMBL4616632, “Discovery of Cyclic Boronic Acid QPX7728, an Ultrabroad-Spectrum Inhibitor of Serine and Metallo-β-lactamases” (J Med Chem, 2020):

Test system: Klebsiella pneumoniae
Assay: Inhibition of Klebsiella pneumoniae KP1009 CTX-M-15 assessed as minimum concentration of compound required to reduce the MIC of aztreonam to 4 ug/ml

Row | Compound | MEC [µg/mL]
1 | O=C(O)c1c(OC2COC2)ccc2c1OB(O)[C@@H](Sc1nncs1)C2 | > 20
2 | O=C(O)c1cccc2c1OB(O)CC2 | 20
3 | N=C(N)S[C@H]1Cc2cccc(C(=O)O)c2OB1O | > 20
4 | N#CCOc1ccc2c(c1C(=O)O)OB(O)[C@@H](Sc1nncs1)C2 | > 20

The next lines start with the values.

Row | MEC [µg/mL] | Compound
5 | > 10 | O=C(O)c1cccc2c1OB(O)[C@@H](Sc1ncc[nH]1)C2
6 | > 20 | O=C(O)c1cccc2c1OB(O)[C@@H](Sc1nccs1)C2
7 | > 20 | O=C(O)c1cccc2c1OB(O)[C@@H](Sc1cccnc1)C2
8 | > 20 | O=C(O)c1cccc2c1OB(O)[C@@H](Sc1ncccn1)C2

Test system: Escherichia coli
Assay: Inhibition of Escherichia coli KP308 SHV-5 assessed as minimum concentration of compound required to reduce the MIC of aztreonam to 4 ug/ml

Row | Compound | MEC [µg/mL]
9 | O=C(O)c1c(OC2COC2)ccc2c1OB(O)[C@@H](Sc1nncs1)C2 | > 20
10 | N=C(N)S[C@H]1Cc2cccc(C(=O)O)c2OB1O | > 20
11 | N#CCOc1ccc2c(c1C(=O)O)OB(O)[C@@H](Sc1nncs1)C2 | 10

Second part, the molecule after the results:

Row | MEC [µg/mL] | Compound
12 | > 10 | O=C(O)c1cccc2c1OB(O)[C@@H](Sc1ncc[nH]1)C2
13 | 10 | O=C(O)c1cccc2c1OB(O)[C@@H](Sc1nccs1)C2
14 | > 20 | O=C(O)c1cccc2c1OB(O)[C@@H](Sc1cccnc1)C2
15 | > 20 | O=C(O)c1cccc2c1OB(O)[C@@H](Sc1ncccn1)C2

Test system: Escherichia coli
Assay: Inhibition of Escherichia coli EC302 TEM-10 assessed as minimum concentration of compound needed to reduce the MIC of aztreonam to 4 ug/ml

Row | Compound | MEC [µg/mL]
16 | O=C(O)c1c(OC2COC2)ccc2c1OB(O)[C@@H](Sc1nncs1)C2 | > 20
17 | N=C(N)S[C@H]1Cc2cccc(C(=O)O)c2OB1O | > 20
18 | N#CCOc1ccc2c(c1C(=O)O)OB(O)[C@@H](Sc1nncs1)C2 | 20

Results, then the molecule that gave them:

Row | MEC [µg/mL] | Compound
19 | > 10 | O=C(O)c1cccc2c1OB(O)[C@@H](Sc1ncc[nH]1)C2
20 | > 20 | O=C(O)c1cccc2c1OB(O)[C@@H](Sc1nccs1)C2
21 | > 20 | O=C(O)c1cccc2c1OB(O)[C@@H](Sc1cccnc1)C2
22 | > 20 | O=C(O)c1cccc2c1OB(O)[C@@H](Sc1ncccn1)C2

Molecular target: Beta-lactamase (Klebsiella pneumoniae) (UniProt Q93LQ9)
Sequence (Q93LQ9 as listed by the source): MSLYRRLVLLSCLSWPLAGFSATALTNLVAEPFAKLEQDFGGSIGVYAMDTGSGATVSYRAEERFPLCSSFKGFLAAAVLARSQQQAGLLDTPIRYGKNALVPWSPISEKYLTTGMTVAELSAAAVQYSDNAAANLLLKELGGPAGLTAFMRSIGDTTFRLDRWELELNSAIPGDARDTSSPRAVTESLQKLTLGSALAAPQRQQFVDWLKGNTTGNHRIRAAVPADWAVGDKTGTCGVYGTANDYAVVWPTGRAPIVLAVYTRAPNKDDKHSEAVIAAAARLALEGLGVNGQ
Assay: Inhibition of Klebsiella pneumoniae KP1004 KPC-2 assessed as minimum concentration of compound needed to reduce the MIC of aztreonam to 4 ug/ml

Row | Compound | MEC [µg/mL]
23 | O=C(O)c1c(OC2COC2)ccc2c1OB(O)[C@@H](Sc1nncs1)C2 | > 20
24 | O=C(O)c1cccc2c1OB(O)CC2 | 0.6
25 | N=C(N)S[C@H]1Cc2cccc(C(=O)O)c2OB1O | > 20
26 | N#CCOc1ccc2c(c1C(=O)O)OB(O)[C@@H](Sc1nncs1)C2 | 20

The remaining lines, values ahead:

Row | MEC [µg/mL] | Compound
27 | > 10 | O=C(O)c1cccc2c1OB(O)[C@@H](Sc1ncc[nH]1)C2
28 | > 20 | O=C(O)c1cccc2c1OB(O)[C@@H](Sc1nccs1)C2
29 | > 20 | O=C(O)c1cccc2c1OB(O)[C@@H](Sc1cccnc1)C2
30 | > 20 | O=C(O)c1cccc2c1OB(O)[C@@H](Sc1ncccn1)C2

Test system: Enterobacter cloacae
Assay: Inhibition of Enterobacter cloacae ECL1002 AmpC assessed as minimum concentration of compound needed to reduce the MIC of aztreonam to 4 ug/ml

Row | Compound | MEC [µg/mL]
31 | O=C(O)c1c(OC2COC2)ccc2c1OB(O)[C@@H](Sc1nncs1)C2 | > 20
32 | O=C(O)c1cccc2c1OB(O)CC2 | 5
33 | N=C(N)S[C@H]1Cc2cccc(C(=O)O)c2OB1O | > 20
34 | N#CCOc1ccc2c(c1C(=O)O)OB(O)[C@@H](Sc1nncs1)C2 | > 20

Next, values leading:

Row | MEC [µg/mL] | Compound
35 | > 10 | O=C(O)c1cccc2c1OB(O)[C@@H](Sc1ncc[nH]1)C2
36 | > 20 | O=C(O)c1cccc2c1OB(O)[C@@H](Sc1nccs1)C2
37 | > 20 | O=C(O)c1cccc2c1OB(O)[C@@H](Sc1cccnc1)C2
38 | > 20 | O=C(O)c1cccc2c1OB(O)[C@@H](Sc1ncccn1)C2

Test system: Klebsiella pneumoniae
Assay: Inhibition of Klebsiella pneumoniae KP1081 NDM-1 assessed as minimum concentration of compound required to reduce the MIC of biapenem to 1 ug/ml

Row | Compound | MEC [µg/mL]
39 | O=C(O)c1c(OC2COC2)ccc2c1OB(O)[C@@H](Sc1nncs1)C2 | > 20
40 | O=C(O)c1cccc2c1OB(O)CC2 | 1.25
41 | N=C(N)S[C@H]1Cc2cccc(C(=O)O)c2OB1O | > 20
42 | N#CCOc1ccc2c(c1C(=O)O)OB(O)[C@@H](Sc1nncs1)C2 | 2.5

More lines, now with the values ahead:

Row | MEC [µg/mL] | Compound
43 | > 20 | O=C(O)c1cccc2c1OB(O)[C@@H](Sc1ncc[nH]1)C2
44 | 0.3 | O=C(O)c1cccc2c1OB(O)[C@@H](Sc1nccs1)C2
45 | 2.5 | O=C(O)c1cccc2c1OB(O)[C@@H](Sc1cccnc1)C2
46 | 10 | O=C(O)c1cccc2c1OB(O)[C@@H](Sc1ncccn1)C2

Test system: Klebsiella pneumoniae
Assay: Inhibition of Klebsiella pneumoniae KP1054 VIM-1 assessed as minimum concentration of compound required to reduce the MIC of biapenem to 1 ug/ml

Row | Compound | MEC [µg/mL]
47 | O=C(O)c1c(OC2COC2)ccc2c1OB(O)[C@@H](Sc1nncs1)C2 | 20
48 | O=C(O)c1cccc2c1OB(O)CC2 | 10
49 | N=C(N)S[C@H]1Cc2cccc(C(=O)O)c2OB1O | > 20
50 | N#CCOc1ccc2c(c1C(=O)O)OB(O)[C@@H](Sc1nncs1)C2 | 2.5

Results, then the molecule that gave them:

Row | MEC [µg/mL] | Compound
51 | > 20 | O=C(O)c1cccc2c1OB(O)[C@@H](Sc1ncc[nH]1)C2
52 | 2.5 | O=C(O)c1cccc2c1OB(O)[C@@H](Sc1nccs1)C2
53 | 1.25 | O=C(O)c1cccc2c1OB(O)[C@@H](Sc1cccnc1)C2
54 | 20 | O=C(O)c1cccc2c1OB(O)[C@@H](Sc1ncccn1)C2

Test system: Pseudomonas aeruginosa
Assay: Inhibition of Pseudomonas aeruginosa PAM 2035 AmpC assessed as minimum concentration of compound needed to reduce the MIC of aztreonam to 4 ug/ml

Row | MEC [µg/mL] | Compound
55 | > 20 | O=C(O)c1c(OC2COC2)ccc2c1OB(O)[C@@H](Sc1nncs1)C2
56 | 0.6 | O=C(O)c1cccc2c1OB(O)CC2
57 | > 20 | N#CCOc1ccc2c(c1C(=O)O)OB(O)[C@@H](Sc1nncs1)C2

Test system: Klebsiella pneumoniae
Assay: Inhibition of Klebsiella pneumoniae KP1160 IMP-26 assessed as minimum concentration of compound needed to reduce the MIC of meropenem to 1 ug/ml

Row | MEC [µg/mL] | Compound
58 | > 20 | O=C(O)c1c(OC2COC2)ccc2c1OB(O)[C@@H](Sc1nncs1)C2
59 | > 20 | O=C(O)c1cccc2c1OB(O)CC2
60 | > 20 | N#CCOc1ccc2c(c1C(=O)O)OB(O)[C@@H](Sc1nncs1)C2

Test system: Escherichia coli
Assay: Inhibition of Escherichia coli ECM6625 SHV-5 assessed as minimum concentration of compound needed to reduce the MIC of aztreonam to 4 ug/ml

Row | MEC [µg/mL] | Compound
61 | 20 | O=C(O)c1cccc2c1OB(O)CC2

Test system: Escherichia coli
Assay: Inhibition of Escherichia coli ECM6619 TEM-10 assessed as minimum concentration of compound needed to reduce the MIC of aztreonam to 4 ug/ml

Row | MEC [µg/mL] | Compound
62 | 10 | O=C(O)c1cccc2c1OB(O)CC2

Test system: Acinetobacter baumannii
Assay: Inhibition of Acinetobacter baumannii AB1053 OXA-72 assessed as minimum concentration of compound needed to reduce the MIC of meropenem to 8 ug/ml

Row | MEC [µg/mL] | Compound
63 | > 20 | O=C(O)c1cccc2c1OB(O)CC2

Molecular target: Beta-lactamase OXA-23 (Acinetobacter baumannii) (UniProt Q9L4P2)
Sequence (Q9L4P2 whole entry): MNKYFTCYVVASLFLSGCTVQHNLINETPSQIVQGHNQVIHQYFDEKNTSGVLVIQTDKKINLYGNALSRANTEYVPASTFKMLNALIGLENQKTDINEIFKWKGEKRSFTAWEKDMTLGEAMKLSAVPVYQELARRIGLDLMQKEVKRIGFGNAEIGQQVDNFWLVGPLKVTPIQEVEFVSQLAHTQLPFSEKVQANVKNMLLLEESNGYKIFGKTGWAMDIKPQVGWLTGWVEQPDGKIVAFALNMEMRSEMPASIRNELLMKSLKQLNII
Assay: Inhibition of Acinetobacter baumannii AB1054 OXA-23 assessed as minimum concentration of compound needed to reduce the MIC of meropenem to 8 ug/ml

Row | MEC [µg/mL] | Compound
64 | 20 | O=C(O)c1cccc2c1OB(O)CC2
